According to ChEMBL document CHEMBL1151540, “1-Naphthylmethylphosphonic acid derivatives as osteoclastic acid phosphatase inhibitors” (Bioorg Med Chem Lett, 1995):

How the values were obtained:
[1] = target: Tartrate-resistant acid phosphatase type 5 (Homo sapiens) (UniProt P13686); assay: Tested for inhibition of human Osteoclastic acid phosphatase (OAP), purified from the spleen of a patient with hairy cell leukemia at 100 uM
Mus musculus [2] = species on record: Mus musculus; assay: Tested for percentage inhibition of PTH stimulated bone resorption in neonatal mouse calvaria placed in culture, at 10 uM concentration; format: functional
Mus musculus [3] = species on record: Mus musculus; assay: Compound was tested for thymidine incorporation at 10 uM concentration; format: functional
Mus musculus [4] = species on record: Mus musculus; assay: Compound was evaluated for thymidine incorporation at 10 uM concentration using [H3 thymidine] as radioligand; format: functional
Mus musculus [5] = species on record: Mus musculus; assay: Compound was evaluated for thymidine incorporation at 1 uM concentration using [H3 thymidine] as radioligand; format: functional
Mus musculus [6] = species on record: Mus musculus; assay: Tested for percentage inhibition of PTH stimulated bone resorption in neonatal mouse calvaria placed in culture, at 1 uM concentration; format: functional
Mus musculus [7] = species on record: Mus musculus; assay: Compound was evaluated for thymidine incorporation at 100 uM concentration using [H3 thymidine] as radioligand; format: functional
Mus musculus [8] = species on record: Mus musculus; assay: Tested for percentage inhibition of PTH stimulated bone resorption in neonatal mouse calvaria placed in culture, at 100 uM concentration; format: functional
Mus musculus [9] = species on record: Mus musculus; assay: Compound was tested for thymidine incorporation at 500 uM concentration using [H3 thymidine] as radioligand; format: functional
Mus musculus [10] = species on record: Mus musculus; assay: Compound was tested for the percentage inhibition of PTH stimulated bone resorption in neonatal mouse calvaria placed in culture, at 500 uM concentration; format: functional
Mus musculus [11] = species on record: Mus musculus; assay: Compound was tested for the percentage inhibition of PTH stimulated bone resorption in neonatal mouse calvaria placed in culture, at 100 uM concentration; format: functional

Tartrate-resistant acid phosphatase type 5 (Homo sapiens), sequence (P13686 whole entry, looked up): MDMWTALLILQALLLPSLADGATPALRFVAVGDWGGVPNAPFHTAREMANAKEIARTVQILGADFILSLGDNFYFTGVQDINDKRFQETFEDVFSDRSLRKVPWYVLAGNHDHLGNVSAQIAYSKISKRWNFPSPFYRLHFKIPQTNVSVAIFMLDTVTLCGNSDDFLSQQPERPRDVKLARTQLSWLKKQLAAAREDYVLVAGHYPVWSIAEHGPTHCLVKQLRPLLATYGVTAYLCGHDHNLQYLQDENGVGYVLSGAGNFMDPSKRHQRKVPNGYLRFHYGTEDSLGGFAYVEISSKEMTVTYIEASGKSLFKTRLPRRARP

Compound | inhibition [1] [%] | further results
O=P(O)(O)C(Cc1ccc(Cl)cc1)(Cc1ccc(Cl)cc1)c1cccc2ccccc12 | 87 | –
O=P(O)(O)Cc1ccc2ccccc2c1 | 4 | –
O=P(O)(O)C(Cc1ccccc1)c1cccc2ccccc12 (centres undefined) | 92 | –
O=P(O)(O)C(Cl)(Cl)P(=O)(O)O [CLODRONIC ACID] | – | Inhibition (Mus musculus [2]): 95.6%; Control (Mus musculus [3]): 104%
COc1ccc(CC(c2cccc3ccccc23)P(=O)(O)O)cc1 (centres undefined) | 73 | –
ORTHOVANADATE | – | Control (Mus musculus [4]): 94%; inhibition (Mus musculus [2]): 72.7%; Control (Mus musculus [5]): 127%; inhibition (Mus musculus [6]): 31.3%; Control (Mus musculus [7]): 0.4%; inhibition (Mus musculus [8]): 130%
O=P(O)(O)C(O)c1cccc2ccccc12 (centres undefined) | 10 | –
O=P(O)(O)C(Cc1ccc(-c2ccccc2)cc1)c1cccc2ccccc12 (centres undefined) | 100 | –
Cc1ccc2ccccc2c1CP(=O)(O)O | 20 | –
O=P(O)(O)C(Cc1ccc(Cl)cc1)c1cccc2ccccc12 (centres undefined) | 94 | Control (Mus musculus [9]): 76%; Inhibition (Mus musculus [10]): 101.8%; Inhibition (Mus musculus [11]): 31.9%
O=P(O)(O)Cc1ccccc1 | 0 | –
O=C(c1ccc2ccccc2c1)C(c1cccc2ccccc12)P(=O)(O)O (centres undefined) | 95 | –
Cc1ccc(CC(c2cccc3ccccc23)P(=O)(O)O)cc1 (centres undefined) | 75 | –
O=P(O)(O)C(Cc1ccccc1)c1ccc2ccccc2c1 (centres undefined) | 19 | –
O=P(O)(O)C(Cc1ccccc1)c1ccccc1 (centres undefined) | 15 | –
Cc1ccc2ccccc2c1C(CC1CCCCC1)P(=O)(O)O (centres undefined) | 90 | –
O=[N+]([O-])c1ccc(CC(c2cccc3ccccc23)P(=O)(O)O)cc1 (centres undefined) | 80 | –
O=P(O)(O)C(CC1CCCCC1)c1cccc2ccccc12 (centres undefined) | 73 | –
O=C(c1ccccc1)C(C(=O)c1ccccc1)(c1cccc2ccccc12)P(=O)(O)O | 96 | –
O=P(O)(O)Cc1cccc2ccccc12 | 64 | –
